According to publication PMC10016662 (PLOS Pathogens, 2023):
Like-named read-outs stand apart in the source and are kept apart here.

Target: T1, HRTV Gc (Heartland virus, UniProt J3WAX0)
T1 construct: gene GP
Assay: biochemical
Format: binding

T1 sequence (J3WAX0 567-999 limits assumed): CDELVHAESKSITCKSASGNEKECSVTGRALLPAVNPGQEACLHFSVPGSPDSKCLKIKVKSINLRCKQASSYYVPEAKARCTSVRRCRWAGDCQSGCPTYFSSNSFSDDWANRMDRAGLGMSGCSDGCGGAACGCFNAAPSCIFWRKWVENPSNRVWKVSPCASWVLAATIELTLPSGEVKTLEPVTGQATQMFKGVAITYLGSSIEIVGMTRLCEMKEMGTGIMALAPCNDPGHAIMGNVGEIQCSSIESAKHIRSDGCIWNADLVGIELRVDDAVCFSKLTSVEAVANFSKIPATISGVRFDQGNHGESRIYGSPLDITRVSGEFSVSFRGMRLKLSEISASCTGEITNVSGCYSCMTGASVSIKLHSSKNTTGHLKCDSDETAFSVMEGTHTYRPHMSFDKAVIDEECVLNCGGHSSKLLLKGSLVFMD

| Compound | Kd (read-out: KD) | Kd |
| --- | --- | --- |
| GlcCer | < 1 nM | – |
| GalCer | 600 nM | – |
| CCCCCCCC/C=C\CCCCCCCC(=O)OC[C@H](COP(=O)([O-])OCC[N+](C)(C)C)OC(=O)CCCCCCC/C=C\CCCCCCCC [DOPC] | – | 2100 nM |
